Test results: PMC6821309, “Optimization of Insect Odorant Receptor Trafficking and Functional Expression Via Transient Transfection in HEK293 Cells” (Chemical Senses, 2019)

Assays:
[1] = target: T1, Or47a/Orco heteromer (pDmelOR-R.E.hOr47a; mRho.V5.mER.hOr47a + hOrco) (Drosophila melanogaster, UniProt P81921); experiment: Fura-2 calcium imaging, automated platform, response normalized to VUAA1; type: cell-based; conditions: agonist; 1 mM CaCl2, pH 7.4; 3-parameter logistic fit; transient HEK293
T1 construct: N-terminal myc-tagged codon-optimized Orco, spliced chimeric intron; bidirectional vector, transient HEK293; with Odorant receptor coreceptor
T1 sequence (P81921 1-385): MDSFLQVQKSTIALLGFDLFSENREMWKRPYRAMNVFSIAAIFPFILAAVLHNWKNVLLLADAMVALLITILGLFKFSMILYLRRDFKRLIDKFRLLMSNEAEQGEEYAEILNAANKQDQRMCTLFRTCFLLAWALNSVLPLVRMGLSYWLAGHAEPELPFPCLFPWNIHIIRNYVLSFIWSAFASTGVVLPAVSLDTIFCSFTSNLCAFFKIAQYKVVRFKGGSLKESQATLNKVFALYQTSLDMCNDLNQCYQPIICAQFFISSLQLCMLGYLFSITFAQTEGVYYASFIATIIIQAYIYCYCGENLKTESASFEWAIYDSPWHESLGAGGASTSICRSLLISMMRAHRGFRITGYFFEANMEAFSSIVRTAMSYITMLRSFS
T1 sequence (Q9VNB5 1-486 partner): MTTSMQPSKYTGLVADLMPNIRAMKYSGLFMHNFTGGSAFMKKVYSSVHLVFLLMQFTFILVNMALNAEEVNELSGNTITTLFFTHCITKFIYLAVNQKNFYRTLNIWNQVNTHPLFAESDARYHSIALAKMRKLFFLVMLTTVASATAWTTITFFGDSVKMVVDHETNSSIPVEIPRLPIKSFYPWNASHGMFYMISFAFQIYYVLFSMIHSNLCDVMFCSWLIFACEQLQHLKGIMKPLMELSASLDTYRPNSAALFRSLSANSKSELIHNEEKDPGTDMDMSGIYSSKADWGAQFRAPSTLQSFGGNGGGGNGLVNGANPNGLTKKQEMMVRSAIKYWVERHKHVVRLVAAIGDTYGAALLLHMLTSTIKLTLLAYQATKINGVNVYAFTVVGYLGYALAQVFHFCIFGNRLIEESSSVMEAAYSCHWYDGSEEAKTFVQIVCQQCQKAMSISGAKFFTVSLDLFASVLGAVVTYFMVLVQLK
Excerpt: Fura-2 calcium imaging, automated platform, response normalized to VUAA1 on Or47a/Orco heteromer (pDmelOR-R.E.hOr47a; mRho.V5.mER.hOr47a + hOrco) | transfected with pDmelOR-R.E.hOr47a and stimulated with pentyl acetate (d)

[2] = target: T2, Or56a/Orco (pDmelOR-R.E.hOr56a; mRho.V5.mER.hOr56a + hOrco) (Drosophila melanogaster, UniProt Q9V8Y7); experiment: as above; type: cell-based; conditions: agonist; 1 mM CaCl2, pH 7.4; 3-parameter logistic fit; transient HEK293
T2 construct: human codon-optimized Or56a with N-terminal mRho.V5.mER tag; N-terminal myc-tagged codon-optimized Orco, spliced chimeric intron; bidirectional vector, transient HEK293; with Odorant receptor coreceptor
T2 sequence (Q9V8Y7 1-419): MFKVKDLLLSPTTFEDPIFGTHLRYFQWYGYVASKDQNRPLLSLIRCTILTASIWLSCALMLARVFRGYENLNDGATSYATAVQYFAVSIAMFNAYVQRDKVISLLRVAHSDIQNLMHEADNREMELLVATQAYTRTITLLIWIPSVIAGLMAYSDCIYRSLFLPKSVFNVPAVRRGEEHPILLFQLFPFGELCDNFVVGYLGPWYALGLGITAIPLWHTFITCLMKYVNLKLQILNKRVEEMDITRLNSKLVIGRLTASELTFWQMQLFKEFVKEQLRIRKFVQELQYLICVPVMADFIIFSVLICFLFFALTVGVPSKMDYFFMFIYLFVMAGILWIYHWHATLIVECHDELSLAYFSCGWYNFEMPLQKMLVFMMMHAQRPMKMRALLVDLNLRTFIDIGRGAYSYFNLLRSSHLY
T2 sequence (Q9VNB5 1-486 partner): T1 sequence (Q9VNB5 1-486 partner)
Excerpt: Fura-2 calcium imaging, automated platform, response normalized to VUAA1 on Or56a/Orco (pDmelOR-R.E.hOr56a; mRho.V5.mER.hOr56a + hOrco) | or with pDmelOR-R.E.hOr56a and stimulated with geosmin (e)

SMILES	EC50 [1]	EC50 [2]
CCCCCOC(C)=O [pentyl acetate]	2.45·10^–5 (1.83 × 10^–5; 3.29 × 10^–5) M	
CC1CCCC2(C)CCCCC12O (racemic) [geosmin]		7.19·10^–7 (3.97 × 10^–7; 1.30 × 10^–6) M
